Experimental data: PMC2730839 (Biochemistry, 2009)

What was measured:
Format in all cases: binding
[1] = biological target: T1, benzoylformate decarboxylase (BFDC) (Pseudomonas putida, UniProt P20906); test: circular dichroism titration at […] nm
[2] = biological target: T1, benzoylformate decarboxylase (BFDC); test: X-ray crystal structure
[3] = biological target: T1, benzoylformate decarboxylase (BFDC); test: X-ray crystal structure; remark: listed apart in the source

T1 sequence (P20906 whole entry): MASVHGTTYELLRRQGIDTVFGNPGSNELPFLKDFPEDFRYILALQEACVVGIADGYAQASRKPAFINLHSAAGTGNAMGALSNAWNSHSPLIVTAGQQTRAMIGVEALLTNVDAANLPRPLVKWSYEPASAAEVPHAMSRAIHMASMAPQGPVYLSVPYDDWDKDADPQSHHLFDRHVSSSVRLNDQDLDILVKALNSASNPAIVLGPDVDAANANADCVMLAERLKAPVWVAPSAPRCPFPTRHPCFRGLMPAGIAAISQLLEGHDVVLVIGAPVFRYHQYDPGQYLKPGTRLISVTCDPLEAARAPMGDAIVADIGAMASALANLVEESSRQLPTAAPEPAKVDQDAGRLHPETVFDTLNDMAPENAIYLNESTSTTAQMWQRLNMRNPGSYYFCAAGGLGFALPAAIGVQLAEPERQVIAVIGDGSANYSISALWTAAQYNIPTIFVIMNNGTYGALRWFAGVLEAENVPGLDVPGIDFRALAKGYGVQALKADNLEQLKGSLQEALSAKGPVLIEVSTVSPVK

COP(=O)(O)C(C)=O [MAP, methyl acetylphosphonate]
Kd [1]: 5490 µM

COP(=O)(O)C(=O)c1ccccc1 [MBP, methyl benzoylphosphonate]
Kd [2]: 113 µM

Cc1ncc(C[n+]2csc(CCOP(=O)([O-])OP(=O)(O)O)c2C)c(N)n1 [ThDP, thiamin diphosphate]
X-ray crystal structure (1.37 Å), seen as its adduct with MBP [3]: the observed electron density is best fit by the covalent adduct between ThDP and MBP
